Assays:
[1] = test system: patient-derived tumor models representing triple negative breast cancer, NSCLC and pancreatic cancer; assay: single agent activity in patient-derived tumor models (primary human tumors grown as xenografts in mice); assay type: in vivo
From the text: In addition, (S)—N—((S)-1-Cyclohexyl-2-{(S)-2-[4-(4-fluoro-benzoyl)-thiazol-2-yl]-pyrrolidin-1-yl}-2-oxo-ethyl)-2-methylamino-propionamide has been tested for single agent activity in 55 patient-derived tumor models representing triple negative breast cancer, NSCLC and pancreatic cancer models.

[2] = test system: panel of >500 tumor cell lines; assay: 72 hour proliferation assay, single agent cellular activity against tumor cell line panel; assay type: cell-based
From the text: We used a statistical framework that integrates pharmacological data together with genetic and mRNA expression data in order to develop biomarkers for predicting response to IAP inhibitors. Using genomic data generated as part of the Cancer Cell Line Encyclopedia collection (Barretina J S, Caponigro G, Stransky N et al (2012) Nature; 483:603-7), we assembled gene copy number, mRNA expression and mutation data into a single matrix. Single agent cellular activity of various IAP antagonists was assessed against a panel of >500 tumor cell lines using a 72 hour proliferation assay. We classified these cell lines into sensitive, intermediate and refractory classes based on the distribution of IC50 data and manual curation of individual responses. A statistical test was applied in order to identify genomic “features” that could differentiate IAP antagonist-sensitive cell lines from refractory lines. Among the top-ranked genes showing differential mRNA expression were TNF and RIPK1, two genes with evidence for apoptotic response to IAP antagonists based on previous experimental studies involving one or a few cell lines. We are thus able to extend prior observations on limited experiments systematically to a large set of data and identified an additional set of seven genes (CXLC10, CCL5, NFKBIA, HERC5, CDYL, STK39 and MAPK14), whose mRNAs were differentially expressed in sensitive compared refractory lines.
We built a predictive machine learning model using the Naive Bayes classifier based on the 9-gene signature as well as a 2-gene TNF/RIPK1 signature. […] For example, at model cutoffs optimized to obtain balanced performance between sensitivity and specificity for each model, the signatures yielded response rates of 16-18% in cross-validation compared to 8% response rate at random without any selection. This improved response rate was further validated in independent experimental testing of a compound-naive set of cell lines that were predicted to be sensitive (AUCs in Table 2).

Structure (SMILES): CN[C@@H](C)C(=O)N[C@H](C(=O)N1CCC[C@H]1c1nc(C(=O)c2ccc(F)cc2)cs1)C1CCCCC1 [(S)—N—((S)-1-Cyclohexyl-2-{(S)-2-[4-(4-fluoro-benzoyl)-thiazol-2-yl]-pyrrolidin-1-yl}-2-oxo-ethyl)-2-methylamino-propionamide]
- single agent activity (range of responses) ([1]; 55 patient-derived tumor models): ranging from tumor regression to no effect
- response rate ([1]; at random, 55 patient-derived tumor models): 11%
- response rate ([1]; models selected by 2-gene, 3-gene and 9-gene signatures, balanced model cutoffs): ~30%
- cell line response rate ([2]; at random, without any selection ("all-comers" cell lines)): 8%
- increase in response rate compared to random or "all-comers" cell lines ([2]; at several model cutoff regimes of the predictive signatures): two- to three-fold
- cell line response rate ([2]; cell lines selected by gene signatures (2-gene, 9-gene), balanced model cutoffs, cross-validation): 16-18%

From patent publication US9353419B2, “Biomarkers for IAP inhibitor therapy” (Novartis AG, priority 2012, dated 2016)
